Reference: article PMC9655618 (Cancers, 2022)

What was measured:
[1] = tested on: total STAT5 protein level in T47D cells; test: Immunoblotting; type: cell-based, human; conditions: 24–72 h
Experimental: (§1) Then, they were washed with ice-cold PBS supplemented with 1 mM ortovanadate and lysed with RIPA buffer containing protease and phosphatase inhibitors (Thermo Fisher Scientific, Waltham, MA, USA). Equal protein amounts were analyzed by SDS–PAGE, and transferred to nitrocellulose membranes (Thermo Fisher Scientific, Waltham, MA, USA), blocked with Tris-buffered saline/0.05% Tween 20 (TBS-T) containing 5% blotto (Merck, Darmstadt, Germany) or 5% BSA for total and phosphorylated proteins, respectively. Immunoblotting was carried out with mouse anti-ERα F-10 (Santa Cruz Biotech, Santa Cruz, CA, USA), rabbit total anti-STAT5 (Cell Signaling Technology, Leiden, The Netherlands) or mouse anti-polyubiquitin (EMD Millipore, Burlington, MA, USA). After washing, membranes were incubated with horseradish peroxidase-conjugated secondary antibodies (Bio-Rad) for 1 h at room temperature. The β-actin antibody (Santa Cruz Biotech, CA, USA) was used as the loading control. Finally, protein bands were visualized by using Clarity™ Western ECL Substrate (Bio-Rad) in the ChemiDoc XRS system (Bio-Rad) and were analyzed with Quantity One software (Bio-Rad).

Ishikawa cells = test: Real-time monitoring of cell proliferation and cytotoxicity (YOYO-1); conditions: for effect on growth of E2-depleted Ishikawa cells: 4-OHTAM 3 μM, compounds 5 µM, 7 days; for IC50: Homo sapiens, Ishikawa, 120 h, read-out: IC50, cell proliferation (AUC)
Experimental: (§2) To monitor long-term growth, human ER+ BC (T47-D, MCF-7, MCF-7/BUS), ER+ endometrial (Ishiwaka, High Point, NC, USA), or non-malignant breast (MCF-10A) cells were seeded at 3000–6000 cells per well. […] When indicated, cells were estrogen-deprived in a 10DCC-FBS supplemented medium for one week. […] Cytotoxicity was monitored by using YOYO-1 (Invitrogen, Waltham, MA, USA). Cell proliferation and cytotoxicity were monitored by sequential real-time microphotographs in an IncuCyte HD real-time imaging system (Essen BioScience, Hertfordshire, UK) for 5–10 days. The area under the curve (AUC) was then analyzed to know both the kinetics and dose-effect relationships. […] Next, cells were treated with VEH (0.05% DMSO) or test compounds for 5–10 days. Spheroid size and cell cytotoxicity were recorded with the Incucyte SX5 Live-Cell Analysis Instrument (Sartorius AG, Göttingen, Germany). To calculate the spheroid growth area, confluence measurements were taken considering the largest brightfield object area (µm^2). Cytotoxicity was monitored by using YOYO-1 (Essen Bioscience, Hertfordshire, UK).

[2] = as above; conditions: human, Ishikawa cells (ER+ endometrial cancer cells)
Experimental: as §2

MCF-10A cells = test: Drug combination assay with 4-OHTAM (MTT); conditions: Homo sapiens, 72 h, read-out: IC50, cell viability inhibition
Experimental: Cells were seeded at 5000 and 7500 cells, per well, respectively, and cell viability was assessed by MTT assays 72 h after treatment. Briefly, cells were incubated with constant ratio combinations of indicated test compounds by doubling dilutions of the individual drugs over a wide range of concentrations [43]. […] Dose-effect curves of the individual or combined compounds were plotted and assessed by the median effect method of Chou and Talalay [43] using Calcusyn software 2.0 (Biosoft, Cambridge, UK), thus obtaining the combination index (CI) values. CI values less than 1, equal to 1, and greater than 1 indicated synergism, addition, and antagonism, respectively.

VERO cells = test: MTT cell viability assay; type: cell-based, monkey; conditions: Primates, Vero, 72 h, 10%FBS growth media
Experimental: Straightforward, the tetrazolium salt 3-(4,5-methyltiazol-2yl-)-2,5diphenyl-tetrazolium bromide (MTT) (Applichen, Darmstadt, Germany) was added to cells, incubated for 2–4 h at 37 °C, and lysed in 10% SDS.

[3] = biological target: T1, ERα protein level in T47D cells (Homo sapiens, UniProt P03372); test: Immunoblotting; type: cell-based; conditions: E2-non depleted T47D cells, 24, 48 and 72 h
T1 construct: from whole-cell extracts of T47D cells; endogenous in cells; host or cells: T47D
Experimental: as §1

[4] = tested on: T47D cancer cell spheroids; test: Real-time monitoring of 3D tumor spheroid growth; type: cell-based, human; conditions: 8 days
[5] = tested on: alkaline phosphatase (ALP) activity in Ishikawa cells; test: Alkaline phosphatase assay; type: cell-based, human; conditions: for effect on E2-induced ALP activity: E2 10 nM, 48 h and 72 h
Experimental: Human endometrium cells ([…]) were cultured in MEM without phenol red with Earle's Salts culture, which was supplemented with estrogen-deprived 10 DCC-FBS du-ring 5 days. […] Cells were washed with ice-cold PBS, and Alkaline Phosphatase (ALP) activity was measured by using ALP Assay Kit (Abcam, Cambridge, MA, USA). The substrate p-nitrophenyl phosphate (pNPP) and the ALP enzyme were used to detect ALP activity by the analysis of the optical density at 405 nm in the iMark microplate Reader (Bio-Rad, Irvine, CA, USA). […] Protein concentration was quantified with the bicinchoninic acid assay (BCA) kit (Bio-Rad).

MCF-7 cells = test: Real-time monitoring of 2D cell growth (IncuCyte); type: cell-based; conditions: Homo sapiens, MCF7, 120 h; complete estrogenic media (10%FBS), 5 days, AUC
Experimental: as §2

[6] = tested on: T47D estrogen-depleted cells; test: E2-induced proliferation of estrogen-depleted cells (AUC of growth kinetics); type: cell-based; conditions: E2-depleted conditions
Experimental: as §2

T47D cells = test: MTT cell viability assay; type: cell-based, human; conditions: Homo sapiens, T47D, 72 h, 10%FBS growth media
Experimental: Straightforward, the tetrazolium salt 3-(4,5-methyltiazol-2yl-)-2,5diphenyl-tetrazolium bromide (MTT) (Applichen, Darmstadt, Germany) was added to cells, incubated for 2–4 h at 37 °C, and lysed in 10% SDS. The mitochondrial metabolization of the tetrazolium salt was determined by the analysis of the optical density at 595 nm, measured with the iMark microplate Reader (Bio–Rad, Irvine, CA, USA).

Row | SMILES | effect on total STAT5 protein level [1] | effect on growth of E2-depleted Ishikawa cells (Ishikawa cells) | IC50 (Ishikawa cells) [µM] | EC50 at 5 days [2] [µM] | IC50 (MCF-10A cells) [µM] | IC50 (VERO cells) [µM] | effect on ERα protein level [3] | effect on spheroid growth [4] | effect on E2-induced ALP activity [5] | Emax ([5]; Homo sapiens, Ishikawa, read-out: ALP activity, % of E2-induced maximal activity (Emax)) [%] | IC50 (MCF-7 cells) [µM] | estrogenic effect on growth [6] | IC50 (T47D cells) [µM] | ALP activity, % of E2-induced maximal activity (Emax) ([5]; absence of E2)
1 | Cc1ccc(C2=CC(O)(c3ccccc3)N(Cc3ccccc3)C2=O)cc1C (centres unmarked) [compound 32, 1-benzyl-3-(3,4-dimethylphenyl)-5-hydroxy-5-phenyl-1H-pyrrol-2(5H)-one] | this effect was not provoked | this effect was not observed | 2.1 | > 10 | 0.35 | 14.7 ± 1.31 | needed a longer time of cell exposure | reduced the growth of T47D cancer cell spheroids | inhibited E2-induced ALP activity | 18 | 1.52 ± 1.25 | did not increase the growth of ER+ BC cells | 10.6 ± 0.58 | –
2 | O=C1C(c2ccc([N+](=O)[O-])cc2)=CC(O)(c2ccccc2)N1Cc1ccccc1 (centres unmarked) [compound 35, 1-benzyl-5-hydroxy-3-(4-nitrophenyl)-5-phenyl-1H-pyrrol-2(5H)-one] | this effect was not provoked | this effect was not observed | 3.81 | 10 | > 0.56 | 9.61 ± 0.16 | dose-dependent (Figure 14B) decrease of ERα protein content | reduced the growth of T47D cancer cell spheroids | inhibited E2-induced ALP activity | – | 4.3 ± 0.77 | did not increase the growth of ER+ BC cells | 5.31 ± 0.47 | did not affect basal
